Reference: US7625908B2, “Quinazoline derivatives” (AstraZeneca AB, priority 2003, dated 2009)

How the values were obtained:
[1] = molecular target: T1, EGFR tyrosine kinase (Homo sapiens, UniProt P00533); assay: Protein tyrosine kinase phosphorylation assay, Test (a), EGFR; type: biochemical; details: recombinant intracellular fragment, ATP at Km; read-out: IC50 (μM) Test (a): Inhibition of EGFR tyrosine kinase protein phosphorylation
T1 construct: Recombinant intracellular fragments of EGFR, erbB2 and erbB4; made in house; host or cells: baculovirus/Sf21 insect cells (cleared lysate used)
Procedure: (§1) a) Protein Tyrosine Kinase phosphorylation Assays
(§2) This test measures the ability of a test compound to inhibit the phosphorylation of a tyrosine containing polypeptide substrate by an erb receptor tyrosine kinase enzyme.
(§3) Recombinant intracellular fragments of EGFR, erbB2 and erbB4 (accession numbers X00588, X03363 and L07868 respectively) were cloned and expressed in the baculovirus/Sf21 system. Lysates were prepared from these cells by treatment with ice-cold lysis buffer (20 mM N-2-hydroxyethylpiperizine-N′-2-ethanesulfonic acid (HEPES) pH7.5, 150 mM NaCl, 10% glycerol, 1% Triton X-100, 1.5 mM MgCl2, 1 mM ethylene glycol-bis(β-aminoethyl ether) N′,N′,N′,N′-tetraacetic acid (EGTA), plus protease inhibitors and then cleared by centrifugation.
(§4) Constitutive kinase activity of these recombinant proteins was determined by their ability to phosphorylate a synthetic peptide (made up of a random co-polymer of Glutamic Acid, Alanine and Tyrosine in the ratio of 6:3:1). Specifically, Maxisorb™ 96-well immunoplates were coated with synthetic peptide (0.2 μg of peptide in a 200 μl phosphate buffered saline (PBS) solution and incubated at 4° C. overnight). Plates were washed in 50 mM HEPES pH 7.4 at room temperature to remove any excess unbound synthetic peptide. […]
(§5) The immobilised phospho-peptide product of the reaction was detected by immunological methods. […] After further washing, HRP activity in each well of the plate was measured colorimetrically using 22′-Azino-di-[3-ethylbenzthiazoline sulfonate (6)]diammonium salt crystals (ABTS™ from Roche) as a substrate.
(§6) Quantification of colour development and thus enzyme activity was achieved by the measurement of absorbance at 405 nm on a Molecular Devices ThermoMax microplate reader. Kinase inhibition for a given compound was expressed as an IC50 value. […] The range of phosphorylation was calculated from the positive (vehicle plus ATP) and negative (vehicle minus ATP) control values.

[2] = molecular target: T2, erbB2 tyrosine kinase (Homo sapiens, UniProt P04626); assay: Protein tyrosine kinase phosphorylation assay, Test (a), erbB2; type: biochemical; details: recombinant intracellular fragment, ATP at Km; read-out: IC50 (μM) Test (a): Inhibition of erbB2 tyrosine kinase protein phosphorylation
T2 construct: Recombinant intracellular fragments of EGFR, erbB2 and erbB4; made in house; host or cells: baculovirus/Sf21 insect cells (cleared lysate used)
Procedure: as §1, §2, §3, §4, §5, §6

[3] = molecular target: T3, erbB2 in a MCF7 derived cell line (Clone 24 cells) (Homo sapiens, UniProt P04626); assay: Clone 24 phospho-erbB2 cell assay, Test (d); type: cell-based; details: 4 hours, read-out: IC50 (μM) Test (d): Inhibition of erbB2 tyrosine kinase protein phosphorylation
T3 construct: to give a cell line that overexpresses full length wild type erbB2 protein; expressed in transfected cells
Procedure: d) Clone 24 Phospho-erbB2 Cell Assay
This immunofluorescence end point assay measures the ability of a test compound to inhibit the phosphorylation of erbB2 in a MCF7 (breast carcinoma) derived cell line which was generated by transfecting MCF7 cells with the full length erbB2 gene using standard methods to give a cell line that overexpresses full length wild type erbB2 protein (hereinafter ‘Clone 24’ cells).
Clone 24 cells were cultured in Growth Medium (phenol red free Dulbecco's modified Eagle's medium (DMEM) containing 10% foetal bovine serum, 2 mM glutamine and 1.2 mg/ml G418) in a 7.5% CO2 air incubator at 37° C. Cells were harvested from T75 stock flasks by washing once in PBS (phosphate buffered saline, pH7.4, Gibco No. 10010-015) and harvested using 2 mls of Trypsin (1.25 mg/ml)/ethylaminediaminetetraacetic acid (EDTA) (0.8 mg/ml) solution. The cells were resuspended in Growth Medium. Cell density was measured using a haemocytometer and viability was calculated using Trypan Blue solution before being further diluted in Growth Medium and seeded at a density of 1×10^4 cells per well (in 10 ul) into clear bottomed 96 well plates (Packard, No. 6005182).
3 days later, Growth Medium was removed from the wells and replaced with 100 ul Assay Medium (phenol red free DMEM, 2 mM glutamine, 1.2 mg/ml G418) either with or without erbB inhibitor compound. Plates were returned to the incubator for 4 hours and then 20 μl of 20% formaldehyde solution in PBS was added to each well and the plate was left at room temperature for 30 minutes. This fixative solution was removed with a multichannel pipette, 100 μl of PBS was added to each well and then removed with a multichannel pipette and then 50 μl PBS was added to each well. Plates were then sealed and stored for up to 2 weeks at 4° C.
Immunostaining was performed at room temperature. […]
The Fluorescence signal is each well was measured using an Acumen Explorer Instrument (Acumen Bioscience Ltd.), a plate reader that can be used to rapidly quantitate features of images generated by laser-scanning. […]

T1 sequence (P00533 669-1210 limits assumed): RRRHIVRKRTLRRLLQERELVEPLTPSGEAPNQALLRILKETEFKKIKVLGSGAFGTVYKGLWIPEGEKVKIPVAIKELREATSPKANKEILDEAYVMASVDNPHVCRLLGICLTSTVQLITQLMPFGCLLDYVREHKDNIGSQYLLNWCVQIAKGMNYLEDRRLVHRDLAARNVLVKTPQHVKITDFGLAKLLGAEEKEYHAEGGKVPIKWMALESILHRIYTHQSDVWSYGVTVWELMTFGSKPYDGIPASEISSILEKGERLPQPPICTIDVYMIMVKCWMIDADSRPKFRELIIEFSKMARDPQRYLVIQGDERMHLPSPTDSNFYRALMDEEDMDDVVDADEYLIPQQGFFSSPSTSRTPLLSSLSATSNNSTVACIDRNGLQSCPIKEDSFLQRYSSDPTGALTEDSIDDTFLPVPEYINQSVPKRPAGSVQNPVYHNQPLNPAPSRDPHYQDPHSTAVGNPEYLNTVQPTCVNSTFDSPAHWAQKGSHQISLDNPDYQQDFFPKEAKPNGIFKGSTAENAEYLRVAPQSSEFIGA
T3 sequence (P04626 23-1255): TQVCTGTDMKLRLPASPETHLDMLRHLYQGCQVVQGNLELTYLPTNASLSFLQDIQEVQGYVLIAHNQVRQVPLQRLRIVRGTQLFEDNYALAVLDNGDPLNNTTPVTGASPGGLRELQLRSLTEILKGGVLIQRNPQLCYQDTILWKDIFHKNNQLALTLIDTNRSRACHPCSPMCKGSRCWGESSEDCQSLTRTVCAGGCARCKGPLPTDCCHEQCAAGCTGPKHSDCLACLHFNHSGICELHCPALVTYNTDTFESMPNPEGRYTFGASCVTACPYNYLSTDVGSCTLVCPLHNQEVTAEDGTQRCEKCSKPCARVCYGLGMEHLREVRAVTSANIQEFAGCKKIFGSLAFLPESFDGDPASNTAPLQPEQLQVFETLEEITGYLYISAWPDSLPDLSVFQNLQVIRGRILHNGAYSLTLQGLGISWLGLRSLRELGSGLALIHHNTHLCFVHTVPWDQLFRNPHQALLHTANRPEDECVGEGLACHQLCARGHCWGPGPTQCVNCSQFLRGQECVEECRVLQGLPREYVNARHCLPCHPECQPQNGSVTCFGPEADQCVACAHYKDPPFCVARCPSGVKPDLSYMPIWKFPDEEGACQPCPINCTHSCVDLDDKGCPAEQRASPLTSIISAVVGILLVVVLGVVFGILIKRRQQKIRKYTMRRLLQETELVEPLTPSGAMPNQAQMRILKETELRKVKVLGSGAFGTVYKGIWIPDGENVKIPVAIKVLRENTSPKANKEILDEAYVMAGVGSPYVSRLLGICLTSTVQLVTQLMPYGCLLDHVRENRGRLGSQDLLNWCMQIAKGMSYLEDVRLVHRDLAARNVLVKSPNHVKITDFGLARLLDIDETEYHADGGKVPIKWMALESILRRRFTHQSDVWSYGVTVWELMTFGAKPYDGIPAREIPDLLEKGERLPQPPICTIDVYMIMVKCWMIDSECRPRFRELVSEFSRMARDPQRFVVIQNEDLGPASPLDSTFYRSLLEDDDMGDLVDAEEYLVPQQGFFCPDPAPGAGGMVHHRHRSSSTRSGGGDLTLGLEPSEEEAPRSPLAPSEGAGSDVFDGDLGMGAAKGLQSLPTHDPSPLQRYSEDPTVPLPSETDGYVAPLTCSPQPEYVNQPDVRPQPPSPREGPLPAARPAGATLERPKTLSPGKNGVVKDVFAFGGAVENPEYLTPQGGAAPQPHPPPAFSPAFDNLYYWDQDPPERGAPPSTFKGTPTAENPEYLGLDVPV
T2 sequence (P04626 676-1255 limits assumed): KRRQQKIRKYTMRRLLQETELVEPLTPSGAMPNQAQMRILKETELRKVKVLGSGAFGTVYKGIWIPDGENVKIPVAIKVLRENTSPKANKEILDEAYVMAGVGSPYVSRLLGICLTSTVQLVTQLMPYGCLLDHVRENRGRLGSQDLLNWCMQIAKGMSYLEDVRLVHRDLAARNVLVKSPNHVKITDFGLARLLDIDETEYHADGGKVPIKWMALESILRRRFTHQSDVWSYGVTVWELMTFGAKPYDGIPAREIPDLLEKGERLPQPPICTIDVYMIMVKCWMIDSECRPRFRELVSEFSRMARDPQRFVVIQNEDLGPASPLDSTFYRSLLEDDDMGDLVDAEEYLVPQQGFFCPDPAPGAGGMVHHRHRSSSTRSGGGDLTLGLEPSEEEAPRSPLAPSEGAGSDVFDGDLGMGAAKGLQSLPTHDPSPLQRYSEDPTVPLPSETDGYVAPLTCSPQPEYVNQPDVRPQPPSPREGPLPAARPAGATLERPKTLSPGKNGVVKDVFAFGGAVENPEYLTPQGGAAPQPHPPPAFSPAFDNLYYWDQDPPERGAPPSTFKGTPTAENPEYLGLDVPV

Work on `O=C(CO)N(CCOc1cccc2ncnc(Nc3ccc(OCc4ccccn4)c(Cl)c3)c12)C1CCOCC1` [Example 21, N-{2-[(4-{[3-Chloro-4-(pyridin-2-ylmethoxy)phenyl]amino}quinazolin-5-yl)oxy]ethyl}-2-hydroxy-N-(tetrahydro-2H-pyran-4-yl)acetamide] yielded an IC50 [1] of 0.414 µM, an IC50 [2] of 0.002 µM and an IC50 [3] of 0.009 µM.

Work on `CC(O)C(=O)N(C)CCOc1cccc2ncnc(Nc3ccc(OCc4ccccn4)c(Cl)c3)c12` (stereo not drawn) [Example 28, N-{2-[(4-{[3-Chloro-4-(pyridin-2-ylmethoxy)phenyl]amino}quinazolin-5-yl)oxy]ethyl}-2-hydroxy-N-methylpropanamide] yielded an IC50 [1] of 0.197 µM, an IC50 [2] of 0.002 µM and an IC50 [3] of 0.112 µM.

`CC(=O)N(C)C[C@@H](C)Oc1cccc2ncnc(Nc3ccc(Oc4ccc(C)nc4)c(C)c3)c12` [Example 104, N-Methyl-N-((2R)-2-{[4-({3-methyl-4-[(6-methylpyridin-3-yl)oxy]phenyl}amino)quinazolin-5-yl]oxy}propyl)acetamide] showed an IC50 [1] of 1.88 µM, an IC50 [2] of 0.017 µM and an IC50 [3] of 0.021 µM.
